Values joined by “and” are separate entries in the source; they are usually repeats but may differ in a detail not shown here. Equal values may be shown once. Read-outs that look alike come from different tables or passages of the source. *1 amine or outer side, *2 acyl side, *3 side chain or, on linkers, in order; H or OH if unused. Where a SMILES comes first, the peptide text is derived from it. Bridges are numbered along the chain shown (N, C = ends). [ ]: non-standard residue; d: D form. The star is where a group is joined. hTyr(3S-OH,4S-OH,3'-OSO3H) = N[C@H](C(=O)O)[C@H](O)[C@@H](O)c1ccc(O)c(OS(=O)(=O)O)c1; Orn(4R-OH,5R-OH) = O=C([C@H](C[C@@H](O)[C@@H](O)N[*:3])N[*:1])[*:2]; Pro(3S-OH,4S-Me) = C[C@H]1CN[C@H](C(=O)O)[C@H]1O; X1 = CCCCCOc1ccc(-c2cc(-c3ccc(C(=O)*)cc3)no2)cc1; Gln(3R-OH) = NC(=O)C[C@@H](O)[C@H](N)C(=O)O; Hyp = O=C(O)[C@@H]1C[C@@H](O)CN1
Biological target: SARS-CoV-2 M^pro (Severe acute respiratory syndrome coronavirus 2, UniProt P0DTD1)
Experiment: biochemical
[1] = ReFRAME hits, >5e-6 = not potent enough to determine an IC50, read-out: M^pro IC50

Compound	IC50 (read-out: M^pro IC50)	M^pro % inhibition at 10 µM (ReFRAME hits, 10 µM)	IC50 [1]	other results
CC(C)[C@H](NC(=O)OCc1ccccc1)C(=O)N[C@@H](C)C(=O)N[C@@H](CC(=O)O)C(=O)COC(=O)c1c(Cl)cccc1Cl [Compound 5]	–	–	–	inhibition at 100 µM (at 100 µM): 50%
CC(=O)N[C@@H](Cc1ccc(O)cc1)C(=O)N[C@H](C(=O)N[C@@H](C)C(=O)N[C@@H](CC(=O)O)C(=O)COC(=O)c1c(C)cccc1C)C(C)C [Compound 6, Ac-YVAD-AOM, reference compound]	–	–	–	Inhibition of M^pro (in words): did not substantially inhibit
Nc1nc(N)nc(Nc2ccc([As]3SC(C(=O)O)C(C(=O)O)S3)cc2)n1 (stereo not drawn) [MELARSONYL]	1 µM	–	–	M^pro % inhibition at 10 µM: 99%
CN1CCCN=C1/C=C/c1cccs1 [Pyrantel pamoate, reference compound]	–	–	–	IC50: 4 µM
CC(=O)[O][Hg][c]1cc(C(C)(C)CC(C)(C)C)ccc1O [acetomeroctol]	> 5 µM	–	–	M^pro % inhibition at 10 µM: 79%
O=c1cc(-c2ccc(O)c(-c3c(O)cc(O)c4c(=O)cc(-c5ccc(O)cc5)oc34)c2)oc2cc(O)cc(O)c12 [amentoflavone]	> 5 µM	–	–	–
O=C1OC2(c3ccccc31)c1cc(I)c(O)c(I)c1Oc1c2cc(I)c(O)c1I [erythrosine]	–	–	–	IC50: 4 µM
Cc1cc(O)c2c(=O)c3c(O)cc(O)c4c5c(O)cc(O)c6c(=O)c7c(O)cc(C)c8c1c2c(c34)c(c78)c65 [hypericin]	4 µM	–	–	inhibition at 10 µM (read-out: M^pro % inhibition at 10 µM, ReFRAME hits, 10 µM): 71%
[Cl][Hg][Cl] [mercuric chloride]	–	89%	> 5 µM	–
CCCCCOc1ccc(-c2cc(-c3ccc(C(=O)N[C@H]4C[C@@H](O)[C@@H](O)NC(=O)[C@@H]5[C@@H](O)[C@@H](C)CN5C(=O)[C@H]([C@H](O)CC(N)=O)NC(=O)[C@H]([C@H](O)[C@@H](O)c5ccc(O)c(OS(=O)(=O)[O-])c5)NC(=O)[C@@H]5C[C@@H](O)CN5C(=O)[C@H]([C@@H](C)O)NC4=O)cc3)no2)cc1.[Na+] [micafungin Sodium, reference compound] (X1-[Orn(4R-OH,5R-OH)]T[Hyp][hTyr(3S-OH,4S-OH,3'-OSO3H)][Gln(3R-OH)][Pro(3S-OH,4S-Me)]; lactam 1-C)	–	50%	> 5 µM	–
O=C(N/N=C/c1ccc([N+](=O)[O-])o1)c1cc([N+](=O)[O-])cc([N+](=O)[O-])c1O [nifursol]	> 5 µM	–	–	–
CN1CCCN=C1/C=C/c1cccc(O)c1 [oxantel (pamoate), reference compound]	–	–	4 µM	–
CN1CCCN=C1/C=C/c1cccc(O)c1.O=C(O)c1cc2ccccc2c(Cc2c(O)c(C(=O)O)cc3ccccc23)c1O [oxantel (pamoate), reference compound]	–	77%	–	–
(-)-epicatechin gallate	–	46%	> 5 µM	–
[(-)-epicatechin]	–	48%	> 5 µM	–
teicoplanin [reference compound]	–	73% and 40%	> 5 µM	–
